In general, IC50 refers to the concentration at which inhibition is half-maximal. The term pIC50 denotes the negative decadic logarithm of the IC50, by convention in mol/L. As a reminder, the CL/F is clearance divided by bioavailability, as obtained after extravascular dosing. Broadly, the AUC(0-t) is exposure summed from dosing to a finite time, without extrapolation to infinity. By Tmax is commonly meant the time at which the peak concentration occurs. The Cmax is the maximum level reached in the sampled fluid or tissue.

pIC50: −log10 of the molar value. In brackets after ≈: the same amount, converted by molar mass. Activity calls are given as the source filed them. No cut-off for these calls is given here. A value given as a limit tells only on which side of the number the result lay.

One series concerns Plasma. As to the kind of experiment: Inhibition of beta-hematin formation in Plasmodium yoelii-infected Swiss albino mouse plasma using hemin as substrate after 16 hrs. Format: functional, cell-free.
Series [1] deals with Plasmodium falciparum. Description: Resistance index, ratio of IC50 for chloroquine-resistant Plasmodium falciparum K1 to IC50 for chloroquine-sensitive Plasmodium falciparum 3D7. Format: functional.
Series [2] can be described thus: Selectivity index, ratio of CC50 for African green monkey Vero cells to IC50 for Plasmodium falciparum. Format: functional.
Series [3] concerns Plasmodium falciparum. Description: Antimalarial activity against chloroquine-resistant Plasmodium falciparum K1 after 72 hrs by MSF assay. The series is classed as functional, organism-based. As to conditions: K1, 72 h.
The subject of series [4] is Plasmodium falciparum. Description: Antimalarial activity against chloroquine-sensitive Plasmodium falciparum 3D7 after 72 hrs by MSF assay. The series is classed as functional, organism-based. As to conditions: 3D7, 72 h.
Series [5] deals with Plasmodium falciparum. As to the kind of experiment: Ratio of chloroquine IC50 to compound IC50 for chloroquine-resistant Plasmodium falciparum K1. The series is classed as functional.
In series [6] the test system is Plasmodium yoelii. As to the kind of experiment: Antimalarial activity against chloroquine-resistant Plasmodium yoelii N-67 infected in Swiss mouse assessed as mean survival time at 50 mg/kg, ip qd for 4 days. The note with it: route intraperitoneal. Format: functional.
Series [7] deals with Plasmodium yoelii. Description: Antimalarial activity against chloroquine-resistant Plasmodium yoelii N-67 infected in Swiss mouse assessed as cured animal at 50 mg/kg, ip qd for 4 days measured on day 28 post infection relative to control. Format: functional.
Series [8] deals with Plasmodium yoelii. As to the kind of experiment: Antimalarial activity against chloroquine-resistant Plasmodium yoelii N-67 infected in Swiss mouse assessed as mouse survival at 50 mg/kg, ip qd for 4 days measured on day 28 post infection relative to control. The series is classed as functional.
The subject of series [9] is Plasmodium yoelii. As to the kind of experiment: Antimalarial activity against chloroquine-resistant Plasmodium yoelii N-67 infected in Swiss mouse assessed as suppression of parasitaemia level at 50 mg/kg, ip qd for 4 days relative to control. Format: functional. As to conditions: route intraperitoneal.
The subject of series [10] is Plasmodium yoelii. Description: Antimalarial activity against chloroquine-resistant Plasmodium yoelii N-67 infected in Swiss mouse assessed as cured animal at 100 mg/kg, po for 4 days measured on day 28 post infection relative to control. Format: functional.
For series [11], the system named is Plasmodium yoelii. Description: Antimalarial activity against chloroquine-resistant Plasmodium yoelii N-67 infected in Swiss mouse assessed as mean survival time at 100 mg/kg, po qd for 4 days. The series is classed as functional.
Series [12] in a line: Clearance in Sprague-Dawley rat at 10 mg/kg, po. Details: dose 10 mg/kg, route oral. The series is classed as ADME, organism-based. As to conditions: in vivo.
The test system of another series is Rattus norvegicus. Description: Volume of distribution in Sprague-Dawley rat at 10 mg/kg, po. Details: dose 10 mg/kg, route oral. As to conditions: in vivo. The series is classed as ADME, organism-based.
Series [13] is described as follows: Elimination half life in Sprague-Dawley rat at 10 mg/kg, po. Format: ADME, organism-based. More on the design: dose 10 mg/kg, route oral. As to conditions: in vivo, read-out: beta t1/2 (converted).
Series [14] is described as follows: AUC (0 to t) in Sprague-Dawley rat at 10 mg/kg, po. The series is classed as ADME, organism-based. Details: dose 10 mg/kg, route oral. The note with it: plasma.
The nature of series [15]: Tmax in Sprague-Dawley rat at 10 mg/kg, po. The series is classed as ADME, organism-based. More on the design: dose 10 mg/kg, route oral. The note with it: in vivo.
A short description of series [16]: Cmax in Sprague-Dawley rat at 10 mg/kg, po. Format: ADME, organism-based. More on the design: dose 10 mg/kg, route oral. As to conditions: in vivo.
Series [17] has as its system Plasmodium yoelii. Description: Antimalarial activity against chloroquine-resistant Plasmodium yoelii N-67 infected in Swiss mouse assessed as mouse survival at 100 mg/kg, po qd for 4 days measured on day 28 post infection relative to control. The series is classed as functional.
In series [18] the test system is Plasmodium yoelii. As to the kind of experiment: Antimalarial activity against chloroquine-resistant Plasmodium yoelii N-67 infected in Swiss mouse assessed as suppression of parasitaemia level at 100 mg/kg, po qd for 4 days relative to control. The series is classed as functional.

`CC(C)(C)n1nnnc1C(NCCNc1ccnc2cc(Cl)ccc12)c1ccc(Cl)cc1` (stereo unspecified): the IC50 with Plasma amounted to 6.15 µg/mL (≈ 13.1 µM). The inhibition result in the series on Plasma is “Dose-dependent effect”. Besides, the “Ratio IC50” value in the series with Plasmodium falciparum [1] is 11.6. Besides, the “Ratio CC50/IC50” value in series [2] is listed as 839.68. Also, the results for the pIC50 in the series on Plasmodium falciparum [3] and in the series on Plasmodium falciparum [4] were 6.56 and 7.62, respectively.
As for `CC(C)(C)n1nnnc1C(Nc1ccc(Nc2ccnc3cc(Cl)ccc23)cc1)c1ccccc1` (stereo unspecified), in the series on Plasma, half-maximal inhibition (IC50) was put at 5.55 µg/mL (≈ 11.5 µM) and the inhibition entry was “Dose-dependent effect”. For the same molecule, the “Ratio CC50/IC50” value in [2] is 2383.47. Besides, the pIC50 in the series on Plasmodium falciparum [3] is less than 5.99. In addition, the pIC50 in the series with Plasmodium falciparum [4] was 7.22.
As for `CC(C)(C)n1nnnc1C(NCCNc1ccnc2cc(Cl)ccc12)c1cccc2ccccc12` (stereo unspecified), in the series on Plasma, 6.33 µg/mL (≈ 13 µM) corresponded to half-maximal inhibition (IC50) and the inhibition entry was “Dose-dependent effect”. The “Ratio IC50” value in the series on Plasmodium falciparum [1] is 1.5. The “Ratio CC50/IC50” value in series [2] came to 305.32. In addition, in the series on Plasmodium falciparum [3], the negative-log IC50 (pIC50) was 6.73. Also, the pIC50 with Plasmodium falciparum [4] was 6.92.
Regarding `COc1ccc(C(Nc2ccc(Nc3ccnc4cc(Cl)ccc34)cc2)c2nnnn2C2CCCCC2)cc1OC` (stereo unspecified), in the series with Plasma, half-maximal inhibition (IC50) required 5.19 µg/mL (≈ 9.1 µM) and the inhibition result was “Dose-dependent effect”. Moreover, the “Ratio IC50” value in the series with Plasmodium falciparum [1] is 0.1. Besides, the “Ratio CC50/IC50” value in series [2] stood at 49.73. The pIC50 in the series on Plasmodium falciparum [3] was 6.84. The molecule also gave a pIC50 in the series with Plasmodium falciparum [4] of 6.07.
As to `CC(C)(C)n1nnnc1C(Nc1ccc(Nc2ccnc3cc(Cl)ccc23)cc1)c1cccc2ccccc12` (stereo unspecified), the “Ratio IC50” value was determined as 3.38 in the series with Plasmodium falciparum [5] and 2.7 with Plasmodium falciparum [1]. Further, the MST in the series with Plasmodium yoelii [6] came out at 12 days. In addition, the outcome in the series with Plasmodium yoelii [7] and with Plasmodium yoelii [8] was inactive. In the series on Plasmodium yoelii [9], the Activity was 57.03%. In addition, the IC50 in the series on Plasma stood at 5.12 µg/mL (≈ 9.59 µM). Further, the inhibition entry in the series with Plasma was “Dose-dependent effect”. In addition, the “Ratio CC50/IC50” value in series [2] is given as 3815.38. In addition, the pIC50 is 7.11 in the series on Plasmodium falciparum [3] and 7.55 in the series with Plasmodium falciparum [4].
As to `CC(C)(C)n1nnnc1C(Nc1ccc(Nc2ccnc3cc(Cl)ccc23)cc1)c1ccc(F)cc1` (stereo unspecified), in the series on Plasma, it took 5.49 µg/mL (≈ 10.9 µM) to reach half-maximal inhibition (IC50) and the inhibition result was “Dose-dependent effect”. The “Ratio IC50” value with Plasmodium falciparum [1] was 22.67. In addition, the “Ratio CC50/IC50” value in series [2] came to 3165.31. The molecule further gave a pIC50 with Plasmodium falciparum [3] of 6.17. In the series with Plasmodium falciparum [4], this molecule had a pIC50 of 7.53.
Regarding `CC(C)(C)n1nnnc1C(Nc1ccc(Nc2ccnc3cc(Cl)ccc23)cc1)c1ccc(Cl)cc1` (stereo unspecified), the Activity in the series with Plasmodium yoelii [10] is recorded as 60%; in the series with Plasmodium yoelii [7] (route intraperitoneal) it was 60%; with Plasmodium yoelii [17], 60%; with Plasmodium yoelii [8] (route intraperitoneal) it was 60%; in the series on Plasmodium yoelii [18], 99.99%; in the series on Plasmodium yoelii [9] it was 99.99%. The MST in the series on Plasmodium yoelii [11] amounted to 25.2 days; in the series with Plasmodium yoelii [6], 23.6 days. This molecule had a CL/F in series [12] of 61.7 mL/min. This molecule displayed a Vd in the series with Rattus norvegicus of 28.16 L. Also, in [13], the half-life is 5.27 h. Also, in [14], the AUC(0-t) was 593 ng·h/mL. The Tmax in series [15] amounted to 2 h. Further, the Cmax in [16] turned out to be 49.2 ng/mL. This molecule displayed an IC50 in the series on Plasma of 5.29 µg/mL (≈ 10.2 µM). In addition, the inhibition entry in the series on Plasma was “Dose-dependent effect”. In addition, the “Ratio IC50” value in the series on Plasmodium falciparum [1] stood at 13.4. The “Ratio CC50/IC50” value in series [2] amounted to 4616.14. Further, the pIC50 in the series on Plasmodium falciparum [3] is 6.84; in the series with Plasmodium falciparum [4] it was 7.97.
In the case of `COc1cc(C(Nc2ccc(Nc3ccnc4cc(Cl)ccc34)cc2)c2nnnn2C(C)(C)C)cc(OC)c1OC` (stereo unspecified), in the series with Plasma, the half-inhibitory concentration (IC50) came to 5.65 µg/mL (≈ 9.84 µM) and the inhibition entry is “Dose-dependent effect”. Further, the “Ratio IC50” value in the series on Plasmodium falciparum [1] was 10.5. Moreover, in [2], the “Ratio CC50/IC50” value is recorded as 300.57. Also, the pIC50 with Plasmodium falciparum [3] is 6.24. In the series with Plasmodium falciparum [4], this molecule showed a pIC50 of 7.27.
Turning to `CC(C)(C)n1nnnc1C(Nc1ccc(Nc2ccnc3cc(Cl)ccc23)cc1)c1ccc(Cl)c(Cl)c1` (stereo unspecified), the MST with Plasmodium yoelii [6] amounted to 16.83 days. Also, the result with Plasmodium yoelii [7] and in the series with Plasmodium yoelii [8] was inactive. In addition, in the series with Plasmodium yoelii [9], the Activity is recorded as 71.49%. In addition, in the series on Plasma, the IC50 was found to be 5.4 µg/mL (≈ 9.77 µM). In the series with Plasma, the inhibition result was “Dose-dependent effect”. In the series with Plasmodium falciparum [1], the “Ratio IC50” value was found to be 12.8. In series [2], the “Ratio CC50/IC50” value worked out at 7076.29. In addition, the pIC50 in the series on Plasmodium falciparum [3] was 6.85; in the series with Plasmodium falciparum [4] it was 7.96.
